Results taken from patent publication US12441693B2, “Targeting STAT sumoylation to enhance immune responses” (THE GEORGE WASHINGTON UNIVERSITY, priority 2018, dated 2025).
Where two headings read alike, the source gives them in different places.

Columns and labels:
[1] = test system: STAT1, STAT2, STAT3, STAT4, STAT5A, STAT5B, STAT6; assay: Western blot of STAT phosphorylation in 293FT HEK cells transfected with V5-tagged STATs; format: cell-based; conditions: 24 hours, vs DMSO
Procedure: In general, samples are prepared and loaded on to a gel and during the electrophoresis the negatively charged proteins move toward the positively charged anode. In order to further analyze the proteins, they are transferred onto a membrane in a procedure called blotting. After the transfer, the membrane is blocked in order to prevent unwanted membrane-protein interaction in the following steps. To visualize the protein of interest the membrane is commonly first probed using a primary protein-specific antibody followed by a labeled secondary antibody used for detection. An image is taken of the membrane and the result is analyzed.

K562 = assay: NK cell killing of K562 cells, E:T 1:1, 4 hours; format: cell-based, human
Procedure: It was therefore hypothesized that inhibiting STAT SUMOylation may enhance the ability of IL-15 stimulated NK cells to clear the HIV latent reservoir. To test the hypothesis, NK cells were treated with DMSO, IL-15-stimulated, treated with HODHBt or IL-15-stimulated and treated with HODHBt. Cells were then tested in their ability to kill the erythroleukemia cell line K562, which lack MHC-I. In an experiment, the NK cells from two donors were co-cultured with K562 at an E:T ratio of 1:1 for 4 hours (FIG. 19A). NK cells were pretreated with IL-15, HODHBt, or a combination of both.

NK cells = test system: NK cells
Procedure: To determine if STAT SUMOylation increases Gzm B expression in NK cells, isolated human NK cells were analyzed after a 3-day incubation with either IL-2, IL-15, HODHBt, IL-2+IL-15, HODHBt+IL-2, HODHBt+IL-15, or HODHBt+IL-2+IL-15.
To further characterize the effects of STAT SUMOylation inhibition in NK cell function, primary human NK cells were isolated and cultured with IL-15 in the presence or absence of HODHBt. 48 hours later, cells were phenotyped by flow cytometry.
To characterize the induction of other proteins known to be important for the cytolytic activity of NK cells, primary human NK cells were isolated from 6 male and 6 female donors and cultured with IL-15 in the presence or absence of HODHBt. 48 hours later, levels of Granzyme A (FIG. 18A), Perforin (FIG. 18B), Granulysin (FIG. 18C), TRAIL (FIG. 18D) and Fas ligand (FASL) (FIG. 18E) were analyzed by flow cytometry.
Antibody-dependent cell-mediated cytotoxicity (ADCC) is mediated by the recognition of an antibody bound to a cell through an Fc receptor present in NK cells, mostly CD16 (FCGR3A). To address whether inhibiting STAT SUMOylation alters CD16 expression in the surface of NK cells, freshly isolated NK cells were treated with either IL-15, HODHBt or a combination of both for 48 hours and surface expression of CD16 was measured by flow cytometry.
Since IL-15 activated STATs, it was hypothesized that STATs, and in particular STAT1, was controlling expression of CXCR5 (C—X—C Motif Chemokine Receptor 5) and that inhibiting STAT SUMOylation enhances CXCR5 expression and promotes migration towards a CXCL13 (C—X—C Motif Chemokine Ligand 13) gradient. CXCL13 controls homing of lymphocytes to follicles in lymph nodes; however whether this mechanism of regulation exists in human NK cells and whether IL-15 controls expression were unknown. To address which one of the two scenarios was potentially playing a role in the presence of NK cells within the follicles, human NK cells were treated with IL-15, HODHBt or a combination of both for 48 hours. Surface expression of CXCR5 and viability were next measured by flow cytometry.
To phenotype the cells, 1×10^5 cells were stained with a viability dye (Fixable Viability Dye eFluor 450, Affymetrix, eBioscience, San Diego, CA) and the surface marker-specific mAb specific for human: PE-anti-CD25 (Caltag, Burlingame, CA) and PE-anti-CD69 (Caltag, Burlingame, CA) followed by flow cytometric analysis in a BD FACScanto II flow cytometer using the FACSDiva software (Becton Dickinson, Mountain View, CA) and analyzed using FlowJo (Tree Star Inc., Ashland, OR).

**Q.** Which results are given for `O=c1c2ccccc2nnn1O` [HODHBt]?
**A.** phosphorylation levels of STATs [1]: increased phosphorylation levels of all the other STATs; killing of K562 by NK cells expanded with compound (K562; NK cells expanded with IL-2 and HODHBt): retained the ability to kill the target cell line K562; killing of K562 by pretreated NK cells (K562; NK cells pretreated with combination of IL-15 and HODHBt, E:T 1:1, 4 hours): drastic increase in the cytolytic capacity of NK cells; Gzm B expression in NK cells (percentage of cells and MFI) (NK cells; 3-day incubation, with IL-2, IL-15 or both): increased Gzm B expression in NK cells treated with IL-2, IL-15 or a combination of both; surface expression of CD16 on NK cells (NK cells; 48 hours, with or without IL-15): sufficient to increase the levels of CD16 expression in NK cells independent of the presence of IL-15; surface expression of CXCR5 on NK cells (NK cells; IL-15 in the presence of HODHBt, 48 hours): dramatically increased in the presence of HODHBt; expression of GZMB in NK cells (NK cells; combination of IL-15 and HODHBt, 48 hours): greatly increased the expression of GZMB; expression of Granzyme A, Perforin, Granulysin, TRAIL and FASL in NK cells (NK cells; combination of IL-15 and HODHBt, vs IL-15 control, 48 hours): enhanced gene expression above IL-15 control; viability / survival of NK cells (NK cells; human, 48 h): did not affect the viability of NK cells either alone or in combination with IL-15; surface expression of CD69 and CD25 on NK cells (NK cells; in combination with IL-15, vs IL-15 alone, 48 hours): enhanced the expression of both surface markers over IL-15 alone; surface expression of CD25 on NK cells (NK cells; single agent, 48 hours): did not change the surface expression; surface expression of CD69 on NK cells (NK cells; single agent, 48 hours): did not change the surface expression of CD69; expression of GZMB in NK cells (NK cells; single agent, vs media control, 48 hours): did not have any effect over media control
